Patent publication US20110251286A1, “Crystalline salts and/or co-crystals of O-desmethyltramadol” (GRUENENTHAL GmbH, priority 2010, published 2011)

Assays:
[1] = Dynamic vapor sorption (DVS): sorption and desorption of moisture; type: physicochemical
Experimental: Investigations on the sorption and desorption of moisture (dynamic vapor sorption, DVS): DVS measurements were carried out on an apparatus of the type DVS 1000 from Porotec. The evaluation of the measurements was carried out using software from Surface Measurement Systems. At a temperature between 23° C. and 26° C., starting from a relative humidity of 50%, within 240 minutes the relative humidity first increased to 90% and then fell to 0%. This cycle was repeated a second time. The DVS charts shown are isothermal recordings (plots) of the change in the mass in % (change in mass—dry) as a function of the desired relative humidity in % (target RH). Correspondingly, the axes of the graphs are marked by ΔM [%] and RH [%]. The measurement curves of the first sorption are designated by 1-S, the subsequent first desorption by 1-D, the second sorption by 2-S and the second desorption by 2-D. Advantageously, mass changes between the sorption and desorption phase are as low as possible.

[2] = Release in artificial intestinal juice; type: physicochemical; details: in artificial intestinal juice
Experimental: Investigations on release were carried out in a Sotax AT7 smart release apparatus with UV measurement (Perkin Elmer photometer).
A vessel with Wood apparatus was used (for intrinsic release).
A pressing of 0.5 cm^2 surface area (diameter 8 mm) was produced with a force of 200 N using approximately 100 mg of active ingredient.
Release was carried out in a release medium, which is composed as described below: • Intestinal juice without pancreas powder, pH 6.8 (analogous to Ph. Eur.); 250.0 ml 6.8 g of potassium dihydrogenphosphate R+0.896 g of NaOH+water to 1000.0 ml.
Release was carried out in a release volume of in each case 500±5 ml at a temperature of the release medium of 37±1° C. with a stirring speed of 100±5 rpm.
The content determination was carried out by means of spectroscopic methods (UV spectroscopy, wavelength: 271 nm, cuvette: 10 mm). Sample taking was carried out manually.
In this release experiment, the individual compounds were placed in a permeable bag in an amount in each case calculated on 100 mg of the free base.
The results, expressed in percent of the substance released, are reproduced in the following tables. In this case, the compounds denote: HCl: hydrochloride; A: cinnamate; B: palmitate; C: decanoate; E: hemi-fumarate and F: hemi-sebacate.

With CN(C)CC1CCCCC1(O)c1cccc(O)c1.CN(C)CC1CCCCC1(O)c1cccc(O)c1.O=C(O)CCCCCCCCC(=O)O (stereo not drawn) [hemi-sebacate] the “ΔM Desorption” value ([1]; DVS 1st cycle, RH 0.0%) was 0.0000%, the “ΔM Desorption” value ([1]; DVS 1st cycle, RH 10.0%) was 0.0235% and the “ΔM Desorption” value ([1]; DVS 1st cycle, RH 20.0%) was 0.0308%. The “ΔM Desorption” value ([1]; DVS 1st cycle, RH 30.0%) was 0.0323%, the “ΔM Desorption” value ([1]; DVS 1st cycle, RH 40.0%) was 0.0338% and the “ΔM Desorption” value ([1]; DVS 1st cycle, RH 50.0%) was 0.0323%. For the same molecule, the “ΔM Hysteresis” value ([1]; DVS 1st cycle, RH 50.0%) was −0.0382%, the “ΔM Sorption” value ([1]; DVS 1st cycle, RH 50.0%) was 0.0704% and the “ΔM Desorption” value ([1]; DVS 1st cycle, RH 60.0%) was 0.0293%. The “ΔM Hysteresis” value ([1]; DVS 1st cycle, RH 60.0%) was −0.0396%, the “ΔM Sorption” value ([1]; DVS 1st cycle, RH 60.0%) was 0.0690% and the “ΔM Desorption” value ([1]; DVS 1st cycle, RH 70.0%) was 0.0220%. For the same molecule, the “ΔM Hysteresis” value ([1]; DVS 1st cycle, RH 70.0%) was −0.0132%, the “ΔM Sorption” value ([1]; DVS 1st cycle, RH 70.0%) was 0.0352% and the “ΔM Desorption” value ([1]; DVS 1st cycle, RH 80.0%) was 0.0088%. The “ΔM Hysteresis” value ([1]; DVS 1st cycle, RH 80.0%) was 0.0205%, the “ΔM Sorption” value ([1]; DVS 1st cycle, RH 80.0%) was −0.0117% and the “ΔM Desorption” value ([1]; DVS 1st cycle, RH 90.0%) was −0.0499%. For the same molecule, the “ΔM Sorption” value ([1]; DVS 1st cycle, RH 90.0%) was −0.0499%, the “ΔM Desorption” value ([1]; DVS 2nd cycle, RH 0.0%) was 0.1585% and the “ΔM Sorption” value ([1]; DVS 2nd cycle, RH 0.0%) was 0.0000%. The “ΔM Desorption” value ([1]; DVS 2nd cycle, RH 10.0%) was 0.1790%, the “ΔM Hysteresis” value ([1]; DVS 2nd cycle, RH 10.0%) was 0.1438% and the “ΔM Sorption” value ([1]; DVS 2nd cycle, RH 10.0%) was 0.0352%. The “ΔM Desorption” value ([1]; DVS 2nd cycle, RH 20.0%) was 0.1834%, the “ΔM Hysteresis” value ([1]; DVS 2nd cycle, RH 20.0%) was 0.1291% and the “ΔM Sorption” value ([1]; DVS 2nd cycle, RH 20.0%) was 0.0543%. The “ΔM Desorption” value ([1]; DVS 2nd cycle, RH 30.0%) was 0.1878%, the “ΔM Hysteresis” value ([1]; DVS 2nd cycle, RH 30.0%) was 0.1174% and the “ΔM Sorption” value ([1]; DVS 2nd cycle, RH 30.0%) was 0.0704%. The “ΔM Desorption” value ([1]; DVS 2nd cycle, RH 40.0%) was 0.1922%, the “ΔM Hysteresis” value ([1]; DVS 2nd cycle, RH 40.0%) was 0.1042% and the “ΔM Sorption” value ([1]; DVS 2nd cycle, RH 40.0%) was 0.0880%. For the same molecule, the “ΔM Desorption” value ([1]; DVS 2nd cycle, RH 50.0%) was 0.1849%, the “ΔM Hysteresis” value ([1]; DVS 2nd cycle, RH 50.0%) was 0.0880% and the “ΔM Sorption” value ([1]; DVS 2nd cycle, RH 50.0%) was 0.0968%. The “ΔM Desorption” value ([1]; DVS 2nd cycle, RH 60.0%) was 0.1761%, the “ΔM Hysteresis” value ([1]; DVS 2nd cycle, RH 60.0%) was 0.0704% and the “ΔM Sorption” value ([1]; DVS 2nd cycle, RH 60.0%) was 0.1057%. For the same molecule, the “ΔM Desorption” value ([1]; DVS 2nd cycle, RH 70.0%) was 0.1629%, the “ΔM Hysteresis” value ([1]; DVS 2nd cycle, RH 70.0%) was 0.0719% and the “ΔM Sorption” value ([1]; DVS 2nd cycle, RH 70.0%) was 0.0910%. For the same molecule, the “ΔM Desorption” value ([1]; DVS 2nd cycle, RH 80.0%) was 0.1350%, the “ΔM Hysteresis” value ([1]; DVS 2nd cycle, RH 80.0%) was 0.0616% and the “ΔM Sorption” value ([1]; DVS 2nd cycle, RH 80.0%) was 0.0734%. The “ΔM Desorption” value ([1]; DVS 2nd cycle, RH 90.0%) was 0.0484%, the “ΔM Sorption” value ([1]; DVS 2nd cycle, RH 90.0%) was 0.0484% and the “ΔM Sorption” value ([1]; DVS 3rd cycle (partial), RH 0.0%) was 0.1585%. For the same molecule, the “ΔM Sorption” value ([1]; DVS 3rd cycle (partial), RH 10.0%) was 0.1937%, the “ΔM Sorption” value ([1]; DVS 3rd cycle (partial), RH 20.0%) was 0.2113% and the “ΔM Sorption” value ([1]; DVS 3rd cycle (partial), RH 30.0%) was 0.2245%. For the same molecule, the “ΔM Sorption” value ([1]; DVS 3rd cycle (partial), RH 40.0%) was 0.2377%, the “ΔM Sorption” value ([1]; DVS 3rd cycle (partial), RH 50.0%) was 0.2465% and the “release rate compared to the hydrochloride salt” value [2] was “decreased release rates compared to the hydrochloride salt”.
With O=C(O)/C=C/c1ccccc1 [cinnamate] the “ΔM Desorption” value ([1]; 1st cycle, RH 0.0 %) was 0.0012%, the “ΔM Desorption” value ([1]; 1st cycle, RH 10.0 %) was 0.0432% and the “ΔM Desorption” value ([1]; 1st cycle, RH 20.0 %) was 0.0766%. For the same molecule, the “ΔM Desorption” value ([1]; 1st cycle, RH 30.0 %) was 0.1106%, the “ΔM Desorption” value ([1]; 1st cycle, RH 40.0 %) was 0.1370% and the “ΔM Desorption” value ([1]; 1st cycle, RH 50.0 %) was 0.1624%. For the same molecule, the “ΔM Hysteresis” value ([1]; 1st cycle, RH 50.0 %) was −0.0006%, the “ΔM Sorption” value ([1]; 1st cycle, RH 50.0 %) was 0.1629% and the “ΔM Desorption” value ([1]; 1st cycle, RH 60.0 %) was 0.2010%. For the same molecule, the “ΔM Hysteresis” value ([1]; 1st cycle, RH 60.0 %) was −0.0299%, the “ΔM Sorption” value ([1]; 1st cycle, RH 60.0 %) was 0.2309% and the “ΔM Desorption” value ([1]; 1st cycle, RH 70.0 %) was 0.2562%. The “ΔM Hysteresis” value ([1]; 1st cycle, RH 70.0 %) was −0.0081%, the “ΔM Sorption” value ([1]; 1st cycle, RH 70.0 %) was 0.2643% and the “ΔM Desorption” value ([1]; 1st cycle, RH 80.0 %) was 0.2988%. The “ΔM Hysteresis” value ([1]; 1st cycle, RH 80.0 %) was 0.0150%, the “ΔM Sorption” value ([1]; 1st cycle, RH 80.0 %) was 0.2839% and the “ΔM Desorption” value ([1]; 1st cycle, RH 90.0 %) was 0.3057%. The “ΔM Sorption” value ([1]; 1st cycle, RH 90.0 %) was 0.3057%, the “ΔM Desorption” value ([1]; 2nd cycle, RH 0.0 %) was −0.0605% and the “ΔM Sorption” value ([1]; 2nd cycle, RH 0.0 %) was 0.0012%. The “ΔM Desorption” value ([1]; 2nd cycle, RH 10.0 %) was −0.0253%, the “ΔM Hysteresis” value ([1]; 2nd cycle, RH 10.0 %) was −0.0610% and the “ΔM Sorption” value ([1]; 2nd cycle, RH 10.0 %) was 0.0357%. The “ΔM Desorption” value ([1]; 2nd cycle, RH 20.0 %) was 0.0046%, the “ΔM Hysteresis” value ([1]; 2nd cycle, RH 20.0 %) was −0.0576% and the “ΔM Sorption” value ([1]; 2nd cycle, RH 20.0 %) was 0.0622%. For the same molecule, the “ΔM Desorption” value ([1]; 2nd cycle, RH 30.0 %) was 0.0322%, the “ΔM Hysteresis” value ([1]; 2nd cycle, RH 30.0 %) was −0.0576% and the “ΔM Sorption” value ([1]; 2nd cycle, RH 30.0 %) was 0.0898%. The “ΔM Desorption” value ([1]; 2nd cycle, RH 40.0 %) was 0.0605%, the “ΔM Hysteresis” value ([1]; 2nd cycle, RH 40.0 %) was −0.0553% and the “ΔM Sorption” value ([1]; 2nd cycle, RH 40.0 %) was 0.1157%. For the same molecule, the “ΔM Desorption” value ([1]; 2nd cycle, RH 50.0 %) was 0.0881%, the “ΔM Hysteresis” value ([1]; 2nd cycle, RH 50.0 %) was −0.0530% and the “ΔM Sorption” value ([1]; 2nd cycle, RH 50.0 %) was 0.1411%. The “ΔM Desorption” value ([1]; 2nd cycle, RH 60.0 %) was 0.1169%, the “ΔM Hysteresis” value ([1]; 2nd cycle, RH 60.0 %) was −0.0461% and the “ΔM Sorption” value ([1]; 2nd cycle, RH 60.0 %) was 0.1629%. The “ΔM Desorption” value ([1]; 2nd cycle, RH 70.0 %) was 0.1480%, the “ΔM Hysteresis” value ([1]; 2nd cycle, RH 70.0 %) was −0.0248% and the “ΔM Sorption” value ([1]; 2nd cycle, RH 70.0 %) was 0.1727%. The “ΔM Desorption” value ([1]; 2nd cycle, RH 80.0 %) was 0.1658%, the “ΔM Hysteresis” value ([1]; 2nd cycle, RH 80.0 %) was −0.0052% and the “ΔM Sorption” value ([1]; 2nd cycle, RH 80.0 %) was 0.1710%. For the same molecule, the “ΔM Desorption” value ([1]; 2nd cycle, RH 90.0 %) was 0.1532%, the “ΔM Sorption” value ([1]; 2nd cycle, RH 90.0 %) was 0.1532% and the “ΔM Sorption” value ([1]; 3rd cycle, RH 0.0 %) was −0.0605%. For the same molecule, the “ΔM Sorption” value ([1]; 3rd cycle, RH 10.0 %) was −0.0190%, the “ΔM Sorption” value ([1]; 3rd cycle, RH 20.0 %) was 0.0104% and the “ΔM Sorption” value ([1]; 3rd cycle, RH 30.0 %) was 0.0345%. For the same molecule, the “ΔM Sorption” value ([1]; 3rd cycle, RH 40.0 %) was 0.0599%, the “ΔM Sorption” value ([1]; 3rd cycle, RH 50.0 %) was 0.0829% and the “release rate compared to the hydrochloride salt” value [2] was “decreased release rates compared to the hydrochloride salt”.
